Experimental data as given in patent US20110105544A1, “CARBOXYLIC DERIVATIVES FOR USE IN THE TREATMENT OF CANCER” (priority 2007, published 2011).
Where a name gives a salt, the structure may show the parent alone.

What was measured:
[1] = tested on: human colon cancer cell line HCT116; experiment: alamarBlue viability assay, HCT116; assay type: cell-based; details: HCT-116, 72 hours, dose required to inhibit cell growth by 50%
Procedure: The human colon cancer cell line HCT116 and the human breast cancer cell line MCF-7 were from the American Type Culture Collection (ATCC; CCL-247 and HTB-22, respectively).
The HCT116 cell line was maintained in DMEM GlutaMAX (Invitrogen) supplemented with 10% fetal calf serum and the MCF7 cell line was maintained in RPMI1640 GlutaMAX (Invitrogen) containing 1 mM sodium piruvate and 10% fetal calf serum.
Cells were grown in a humidified incubator at 37° C. in 5% CO2.
Cells were plated in 96-well plates at a density of 6000 cells/well in 100 μl medium 24 h before addition of drugs. […] To do so, a drugs-dilution plate at twice the screening concentrations was prepared. 72 hours later, alamarBlue (Biosource, Invitrogen) viability assay was performed following manufacturer's protocol. In brief, alamarBlue diluted in media was added to cells to have a 5% solution. Cells were incubated at 37° C., 3 hours and at room temperature, 30 min. Cells with no drug and, cells with no drug and lysed with triton X-100 were used as controls. Fluorescence was monitored at 530 nm excitation and 590 nm emission wavelengths. Results were quantified using Infinite F200 Microplate Reader (Tecan Group, Ltd.). EC50 were calculated as the dose of drugs required to inhibit cell growth by 50%, with Origin 7.0 computer program.

[2] = molecular target: T1, human recombinant HDAC 8 (Homo sapiens, UniProt Q9BY41); experiment: HDAC inhibition assay (Fluor de Lys), HDAC8; assay type: biochemical; details: inhibitor-protein incubation 0 hours, reaction 3 hours, 37° C.
T1 construct: purchased BPS Bioscience 50008
T1 sequence (Q9BY41 1-377): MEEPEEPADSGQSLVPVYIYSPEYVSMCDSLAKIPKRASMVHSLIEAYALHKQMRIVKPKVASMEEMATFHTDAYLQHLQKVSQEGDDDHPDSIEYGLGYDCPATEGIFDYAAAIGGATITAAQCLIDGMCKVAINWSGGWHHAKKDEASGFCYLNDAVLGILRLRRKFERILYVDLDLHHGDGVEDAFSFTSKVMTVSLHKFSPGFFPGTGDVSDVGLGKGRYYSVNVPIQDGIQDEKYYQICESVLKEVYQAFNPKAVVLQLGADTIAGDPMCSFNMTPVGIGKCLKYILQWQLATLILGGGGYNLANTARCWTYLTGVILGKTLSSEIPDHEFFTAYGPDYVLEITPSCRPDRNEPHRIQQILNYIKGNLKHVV
Procedure: (§1) All assays were carried out in the assay buffer: 50 mM Tris/Cl, pH 8.0, 137 mM NaCl, 2.7 mM KCl, 1 mM MgCl2).
(§2) Reactions were carried out in a 96-wells microplate (Corning 96 well Flat Bottom Non-binding surface (black) ref. 3651).
(§3) Potential inhibitors were added after five fold serial dilutions in DMSO. Final DMSO concentration in the assay microplate was kept at 2%.
(§4) Afterwards, human recombinant HDAC1, HDAC 2 or HDAC 8 were added up to […] respectively in assay buffer. When necessary, the mixture was incubated at room temperature prior the addition of substrate.
(§5) Total reaction volume of 50 μl. Human recombinant HDACs could be acquired from commercial sources (HDAC1: ref. #50001, BPS Bioscience™; HDAC 2: ref. #50002, BPS Bioscience™; HDAC 8: ref. #50008, BPS Bioscience™).
(§6) Reactions were stopped with 50 μl Developer (KI-105 Fluor de Lys™, BIOMOL®) with 2 μmol/L trichostatin A (TSA, final concentration 1 μmol/L). After 20 minutes at 37° C., fluorescence (excitation 360 nm, emission 460 nm) was measured using an Infinite F200 fluorimeter (Tecan). Background was determined in reactions using substrate in the absence of enzyme.
(§7) IC50 values are defined as the compound concentration at which the deacetylase activity is 50% inhibited. In these assays the following grading was used (I: IC50≦10 μM; II: 10 μM<IC50≦100 μM; III: 100 μM<IC50≦1 mM) The results obtained are summarized in Table 4.

[3] = molecular target: T2, human recombinant HDAC 2 (Homo sapiens, UniProt Q92769); experiment: HDAC inhibition assay (Fluor de Lys), HDAC2; assay type: biochemical; details: inhibitor-protein incubation 2 hours, reaction 1 h 30 min, 37° C.
T2 construct: purchased BPS Bioscience 50002
Procedure: as §1, §2, §3, §4, §5, §6, §7

T2 sequence (Q92769 whole entry): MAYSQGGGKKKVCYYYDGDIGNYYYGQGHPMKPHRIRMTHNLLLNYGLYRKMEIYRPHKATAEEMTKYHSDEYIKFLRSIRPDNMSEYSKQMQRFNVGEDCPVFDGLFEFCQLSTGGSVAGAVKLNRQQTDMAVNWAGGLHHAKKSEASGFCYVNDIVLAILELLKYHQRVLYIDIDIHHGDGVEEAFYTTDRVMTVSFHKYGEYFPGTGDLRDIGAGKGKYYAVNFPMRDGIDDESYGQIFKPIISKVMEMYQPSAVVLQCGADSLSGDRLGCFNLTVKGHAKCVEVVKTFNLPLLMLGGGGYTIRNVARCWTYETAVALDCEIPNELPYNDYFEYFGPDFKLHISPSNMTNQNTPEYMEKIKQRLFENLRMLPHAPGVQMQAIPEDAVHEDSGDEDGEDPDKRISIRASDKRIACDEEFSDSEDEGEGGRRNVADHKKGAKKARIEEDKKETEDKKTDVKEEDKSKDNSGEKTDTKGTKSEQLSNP

SMILES	EC50 [1] [µM]	IC50 [2] [µM]	IC50 [3] [µM]
O=C(O)C(C/C=C/c1ccccc1)CCc1ccccc1 (centres unmarked) [Example 21, (4E)-5-Phenyl-2-(2-phenylethyl)pent-4-enoic acid]	204	10 to 100	100 to 1000
O=C(O)C(CCCc1ccc2ccccc2c1)CCc1ccccc1 (centres unmarked) [Example 22, 5-(2-Naphthyl)-2-(2-phenylethyl)pentanoic acid]	96.5	10 to 100	100 to 1000
O=C(O)C(CCCc1cccc2ccccc12)CCc1ccccc1 (centres unmarked) [Example 23, 5-(1-Naphthyl)-2-(2-phenylethyl)pentanoic acid]	67	10 to 100	10 to 100
CN(C)c1ccc(C(=O)Nc2cccc(CCCC(CCc3ccccc3)C(=O)O)c2)cc1 (centres unmarked) [Example 24, 5-[3-{[4-(dimethylamino)benzoyl]amino}phenyl]-2-(2-phenylethyl)pentanoic acid hydrochloride]	75	≤ 10	10 to 100
CNS(=O)(=O)c1ccc(CCCC(CCc2ccccc2)C(=O)O)s1 (centres unmarked) [Example 26, 5-{5-[(Methylamino)sulfonyl]thien-2-yl}-2-(2-phenylethyl)pentanoic acid]	1700	100 to 1000	
O=C(O)C(CCCc1cccc(S(=O)(=O)NCc2ccccc2)c1)CCc1ccccc1 (centres unmarked) [Example 27, 5-(3-[(Benzylamino)sulfonyl]phenyl)-2-(2-phenylethyl)pentanoic acid]	140	10 to 100	10 to 100
O=C(O)C(CCCc1ccccc1)CCc1ccccn1 (centres unmarked) [Example 28, 5-Phenyl-2-(2-pyridin-2-ylethyl)pentanoic acid]	312	100 to 1000	
COc1cccc(CCC(CCCc2ccccc2)C(=O)O)c1 (centres unmarked) [Example 29, 2-[2-(3-methoxyphenyl)ethyl]-5-phenylpentanoic acid]	166	10 to 100	100 to 1000
O=C(O)C(CCCc1ccccc1)CCc1cccc(O)c1 (centres unmarked) [Example 30, 2-[2-(3-Hydroxyphenyl)ethyl]-5-phenylpentanoic acid]	58.2	100 to 1000	
CC(=O)Nc1ccc(CCC(CCCc2ccccc2)C(=O)O)cc1 (centres unmarked) [Example 31, 2-{2-[4-(Acetylamino)phenyl]ethyl}-5-phenylpentanoic acid]		10 to 100	100 to 1000
CCCC(CCCc1ccccc1)C(=O)O (centres unmarked) [Example 35, 5-Phenyl-2-propylpentanoic acid]	1300	10 to 100	100 to 1000
Cc1ccc(NS(=O)(=O)c2cccc(C#CCC(CCc3ccccc3)C(=O)O)c2)cc1 (centres unmarked) [Example 38, 5-[3-(4-Methylanilinosulfonyl)phenyl]-2-(2-phenylethyl)pent-4-ynoic acid]	121	10 to 100	100 to 1000
O=C(O)C(CCCc1cccc(S(=O)(=O)Nc2ccccc2)c1)CCc1ccccc1 (centres unmarked) [Example 39]	1200	100 to 1000	
O=C(O)C(CCCc1ccc(S(=O)(=O)Nc2ccccc2)cc1)CCc1ccccc1 (centres unmarked) [Example 40, 5-(4-[Anilinosulfonyl]phenyl)-2-(2-phenylethyl)pentanoic acid]	44.8	10 to 100	10 to 100
Cc1ccc(NS(=O)(=O)c2cccc(CCCC(CCCc3ccccc3)C(=O)O)c2)cc1 (centres unmarked) [Example 44, 5-[3-(4-methylanilinosulfonyl)phenyl]-2-(3-phenylpropyl)pentanoic acid]	95		10 to 100
CCc1ccc(CCC(CCCc2ccccc2)C(=O)O)cc1 (centres unmarked) [Example 45, 2-[2-(4-Ethylphenyl)ethyl]-5-phenylpentanoic acid]	165	≤ 10	10 to 100

SMILES	EC50 [1] [µM]	IC50 [2] [µM]	IC50 [3] [µM]
CCc1ccc(CCC(CCCCc2ccccc2)C(=O)O)cc1 (centres unmarked) [Example 48, 2-[2-(4-Ethylphenyl)ethyl]-6-phenylhexanoic acid]	112		10 to 100
CCc1ccc(CCC(CCCc2cccc3ccccc23)C(=O)O)cc1 (centres unmarked) [Example 50, 5-(1-Naphthyl)-2-[2-(4-ethylphenyl)ethyl]-pentanoic acid]	103		100 to 1000
O=C(O)C(CCCc1ccccc1)CCc1ccc(Br)cc1 (centres unmarked) [Example 52, 2-[2-(4-Bromophenyl)ethyl]-5-phenylpentanoic acid]	107		100 to 1000
O=C(O)C(CCCc1ccccc1)CCc1ccc(OCc2ccccn2)cc1 (centres unmarked) [Example 58, 2-{2-[4-(Pyridin-2-ylmethoxy)phenyl]ethyl}-5-phenylpentanoic acid]	160		10 to 100
N#Cc1ccccc1Oc1ccc(CCC(CCCc2ccccc2)C(=O)O)cc1 (centres unmarked) [Example 61, 2-{2-[4-(2-Cyanophenoxy)phenyl]ethyl}-5-phenylpentanoic acid]	70.7		10 to 100
N#Cc1cccc(Oc2ccc(CCC(CCCc3ccccc3)C(=O)O)cc2)c1 (centres unmarked) [Example 62, 2-{2-[4-(3-cyanophenoxy)phenyl]ethyl}-5-phenylpentanoic acid]	155		10 to 100
N#Cc1ccc(Oc2ccc(CCC(CCCc3ccccc3)C(=O)O)cc2)cc1 (centres unmarked) [Example 63, 2-{2-[4-(4-cyanophenoxy)phenyl]ethyl}-5-phenylpentanoic acid]	88		10 to 100
O=C(O)C(CCCc1ccccc1)SCc1ccccc1 (centres unmarked) [Example 70, Sodium 2-(benzylthio)-5-phenylpentanoate]	825		100 to 1000
O=C(O)C(CCCc1ccccc1)CCc1ccc(-c2ccccc2)cc1 (centres unmarked) [Example 72, 2-[2-(1,1′-Biphenyl-4-yl)ethyl]-5-phenylpentanoic acid]	88.3		10 to 100
O=C(O)C(CCCc1ccccc1)CCc1ccc(-c2ccco2)cc1 (centres unmarked) [Example 73, 2-{2-[4′-(2-Furyl)phenyl]ethyl}-5-phenylpentanoic acid]	48.6		100 to 1000
O=C(O)C(CCCc1ccccc1)CCc1ccc(-c2ccoc2)cc1 (centres unmarked) [Example 74, 2-{2-[4′-(3-Furyl)phenyl]ethyl}-5-phenylpentanoic acid]	94.5		10 to 100
O=C(O)C(CCCc1ccccc1)CCc1ccc(-c2ccsc2)cc1 (centres unmarked) [Example 75, 2-{2-[4′-(3-Thienyl)phenyl]ethyl}-5-phenylpentanoic acid]	184		100 to 1000
O=C(O)C(CCCc1ccccc1)CCc1ccc(-c2ccncc2)cc1 (centres unmarked) [Example 76, 2-{2-[(4′-Pyridinyl)phenyl-4-yl]ethyl}-5-phenylpentanoic acid hydrochloride]	166		10 to 100
O=C(O)C(CCCc1ccccc1)CCc1ccc(-c2cccs2)cc1 (centres unmarked) [Example 78, 5-Phenyl-2-[2-(4′-thien-2-ylphenyl)ethyl]pentanoic acid]	87.2		10 to 100
O=C(O)C(CCCc1cccc2ccccc12)CCc1ccc(-c2cccs2)cc1 (centres unmarked) [Example 79, 5-(1-Naphthyl)-2-[2-(4′-thien-2-ylphenyl)ethyl]-pentanoic acid]	36.7		100 to 1000
O=C(O)C(CCCc1cccc2ccccc12)CCc1ccc(-c2cccnc2)cc1 (centres unmarked) [Example 80, 5-(1-Naphthyl)-2-[2-(4′-pyridin-3-ylphenyl)ethyl]-pentanoic acid]	107		10 to 100
